Laboratory results reported in PMC7749613 (Journal of Cachexia, Sarcopenia and Muscle, 2020).
Bridge positions count the residues as written; N and C are the ends. Square brackets hold non-standard residues; d marks the D form. Peptide text beside a SMILES is read from it. d2Nal = N[C@H](Cc1ccc2ccccc2c1)C(=O)O; Nle = CCCC[C@H](N)C(=O)O

Experiments:
Assay type in all cases: in vitro ADME
OATP1B1 = target: T1, OATP1B1 (Homo sapiens, UniProt Q9Y6L6); assay: Inhibition of prototypical substrate (E17βG) uptake by TCMCB07 in HEK293/OATP1B1 cells
T1 construct: host or cells: HEK293
T1 sequence (Q9Y6L6 1-691): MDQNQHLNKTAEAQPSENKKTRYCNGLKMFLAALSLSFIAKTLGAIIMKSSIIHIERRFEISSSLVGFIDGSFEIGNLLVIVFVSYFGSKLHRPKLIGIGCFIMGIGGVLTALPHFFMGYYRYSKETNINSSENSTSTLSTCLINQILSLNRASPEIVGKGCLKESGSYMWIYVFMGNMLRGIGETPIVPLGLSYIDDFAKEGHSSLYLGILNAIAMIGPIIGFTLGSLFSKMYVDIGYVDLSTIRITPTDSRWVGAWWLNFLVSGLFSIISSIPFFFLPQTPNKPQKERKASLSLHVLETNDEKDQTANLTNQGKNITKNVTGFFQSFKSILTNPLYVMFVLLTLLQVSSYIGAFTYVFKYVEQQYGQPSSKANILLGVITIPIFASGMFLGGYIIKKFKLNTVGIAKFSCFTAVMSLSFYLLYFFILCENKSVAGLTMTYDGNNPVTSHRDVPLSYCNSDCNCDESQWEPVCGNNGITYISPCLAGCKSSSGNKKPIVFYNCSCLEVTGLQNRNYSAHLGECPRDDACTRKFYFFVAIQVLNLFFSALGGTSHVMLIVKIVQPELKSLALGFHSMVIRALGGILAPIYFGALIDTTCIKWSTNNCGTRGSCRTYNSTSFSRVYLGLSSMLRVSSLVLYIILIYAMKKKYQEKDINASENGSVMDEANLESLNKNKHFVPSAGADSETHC
Description: (§3) Cells were then washed three times × 1.0 mL each with pre‐warmed Hank's Balanced Salt Solution (HBSS) buffer. A 0.5 mL aliquot of uptake buffer [HBSS plus 10 mM 4‐(2‐hydroxyethyl)‐1‐piperazineethanesulfonic acid (HEPES), pH 7.4], containing the radiolabelled prototypical substrate and mannitol, was then incubated for various times up to 60 min to determine the optimal incubation time for subsequent experiments (i.e. time of sampling during linear uptake conditions). At the designated times, 1.0 mL of ice‐cold HBSS buffer was added to stop uptake after which the cells were rinsed three times with 1.0 mL with ice‐cold HBSS. Hyamine hydroxide (0.33 mL) was then added to each well to lyse the cells. The cells were transferred into a scintillation vial and mixed with 6.0 mL of cytosine scintillation cocktail. Radioactivity of the solubilized cells was determined with a dual‐channel liquid scintillation counter (Beckman LS 6000; Beckman Coulter Inc., Fullerton, CA) and the protein quantified by a bicinchoninic acid protein assay kit (Pierce Biotechnology; Rockford, IL).

OAT1 = target: T2, OAT1 (Homo sapiens, UniProt Q4U2R8); assay: Inhibition of prototypical substrate (PAH) uptake by TCMCB07 in HEK293/OAT1 cells; details: substrate 1.0 μM [14C]PAH, 5.0 min, up to 1000 μM TCMCB07
T2 construct: host or cells: HEK293
T2 sequence (Q4U2R8 1-563): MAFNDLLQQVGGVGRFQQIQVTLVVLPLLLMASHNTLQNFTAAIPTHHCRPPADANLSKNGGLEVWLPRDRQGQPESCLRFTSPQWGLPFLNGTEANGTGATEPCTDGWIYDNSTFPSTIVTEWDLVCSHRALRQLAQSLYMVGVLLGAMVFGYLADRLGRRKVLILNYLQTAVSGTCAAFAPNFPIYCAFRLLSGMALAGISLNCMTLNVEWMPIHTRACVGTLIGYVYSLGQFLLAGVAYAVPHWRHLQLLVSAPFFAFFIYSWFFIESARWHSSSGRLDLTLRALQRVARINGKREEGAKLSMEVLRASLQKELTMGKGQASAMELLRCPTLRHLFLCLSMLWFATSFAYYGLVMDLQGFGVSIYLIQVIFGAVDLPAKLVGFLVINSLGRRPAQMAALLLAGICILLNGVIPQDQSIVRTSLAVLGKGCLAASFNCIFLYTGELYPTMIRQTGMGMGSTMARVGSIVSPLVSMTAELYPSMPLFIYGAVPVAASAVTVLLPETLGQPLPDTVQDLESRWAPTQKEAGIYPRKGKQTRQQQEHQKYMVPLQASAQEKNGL
Description: as §3

human P‐gp (ABCB1, MDR1) = target: T3, human P‐gp (ABCB1, MDR1) (Homo sapiens, UniProt P08183); assay: Transepithelial transport of digoxin (±TCMCB07) in MDCKII/MDR1 cells
T3 construct: host or cells: MDCKII
T3 sequence (P08183 whole entry): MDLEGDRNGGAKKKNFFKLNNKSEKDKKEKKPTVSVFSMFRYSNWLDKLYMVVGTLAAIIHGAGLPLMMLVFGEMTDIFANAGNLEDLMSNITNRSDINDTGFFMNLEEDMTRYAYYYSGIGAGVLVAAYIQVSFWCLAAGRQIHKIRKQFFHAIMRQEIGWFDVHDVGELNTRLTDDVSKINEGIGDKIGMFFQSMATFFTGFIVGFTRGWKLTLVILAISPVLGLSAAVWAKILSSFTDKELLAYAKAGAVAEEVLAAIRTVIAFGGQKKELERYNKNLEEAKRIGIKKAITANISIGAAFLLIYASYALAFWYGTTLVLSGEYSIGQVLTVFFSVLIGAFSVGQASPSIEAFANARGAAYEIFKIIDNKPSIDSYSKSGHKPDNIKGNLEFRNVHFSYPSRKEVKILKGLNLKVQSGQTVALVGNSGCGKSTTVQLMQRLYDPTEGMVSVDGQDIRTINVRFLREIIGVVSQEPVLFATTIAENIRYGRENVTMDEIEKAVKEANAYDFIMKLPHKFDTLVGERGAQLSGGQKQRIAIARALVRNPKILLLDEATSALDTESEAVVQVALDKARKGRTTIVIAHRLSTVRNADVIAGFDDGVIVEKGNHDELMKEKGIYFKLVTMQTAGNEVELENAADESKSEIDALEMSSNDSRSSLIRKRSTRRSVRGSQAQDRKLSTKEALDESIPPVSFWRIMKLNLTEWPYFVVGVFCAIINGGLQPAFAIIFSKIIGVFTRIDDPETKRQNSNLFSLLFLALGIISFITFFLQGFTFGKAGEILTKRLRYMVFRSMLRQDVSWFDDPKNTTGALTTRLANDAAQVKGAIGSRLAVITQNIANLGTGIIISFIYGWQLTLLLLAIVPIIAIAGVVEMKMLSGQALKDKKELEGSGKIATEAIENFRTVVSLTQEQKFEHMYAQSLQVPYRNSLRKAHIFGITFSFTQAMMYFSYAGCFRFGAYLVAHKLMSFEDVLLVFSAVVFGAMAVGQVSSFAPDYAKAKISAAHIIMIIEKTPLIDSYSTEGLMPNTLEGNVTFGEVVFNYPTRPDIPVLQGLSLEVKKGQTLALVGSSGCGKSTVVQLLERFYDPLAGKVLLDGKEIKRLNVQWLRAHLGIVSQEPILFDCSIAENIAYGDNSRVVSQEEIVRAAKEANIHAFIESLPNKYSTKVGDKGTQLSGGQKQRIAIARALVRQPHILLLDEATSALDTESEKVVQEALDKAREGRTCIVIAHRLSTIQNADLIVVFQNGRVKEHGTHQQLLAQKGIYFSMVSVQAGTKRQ
Description: (§1) Cells were then washed three times, each with 0.5 mL pre‐warmed HBSS buffer. […] The cells were then incubated for various times up to 60 min. […] At the designated times, 15 μL of apical buffer and 50 μL of basolateral buffer were sampled. Once all the samples were collected, 0.5 mL of ice‐cold HBSS buffer was added to the well to stop transport after which the cells were rinsed three times with 0.5 mL of ice‐cold HBSS. The filters with monolayers were then detached from the chamber and placed in a scintillation vial, and the cells were lysed with 0.33 mL hyamine hydroxide.
(§2) The permeability of digoxin and rosuvastatin (prototypical substrates for MDR1 and BCRP, respectively) was determined by the following ^18 : (4) Papp=CR·VR/CD^o·A·∆Δt, where Papp is the apparent permeability, CR is the concentration of substrate in the receiver chamber, CD^o is the concentration of substrate in the donor chamber at time zero, VR is the volume of buffer in the receiver chamber, A is the surface area of the insert filter membrane, and ∆t is the time over which permeability is measured.

BCRP (ABCG2) = target: T4, BCRP (ABCG2) (Homo sapiens, UniProt Q9UNQ0); assay: Transepithelial transport of rosuvastatin (±TCMCB07) in MDCKII/BCRP cells
T4 construct: host or cells: MDCKII
T4 sequence (Q9UNQ0 1-655): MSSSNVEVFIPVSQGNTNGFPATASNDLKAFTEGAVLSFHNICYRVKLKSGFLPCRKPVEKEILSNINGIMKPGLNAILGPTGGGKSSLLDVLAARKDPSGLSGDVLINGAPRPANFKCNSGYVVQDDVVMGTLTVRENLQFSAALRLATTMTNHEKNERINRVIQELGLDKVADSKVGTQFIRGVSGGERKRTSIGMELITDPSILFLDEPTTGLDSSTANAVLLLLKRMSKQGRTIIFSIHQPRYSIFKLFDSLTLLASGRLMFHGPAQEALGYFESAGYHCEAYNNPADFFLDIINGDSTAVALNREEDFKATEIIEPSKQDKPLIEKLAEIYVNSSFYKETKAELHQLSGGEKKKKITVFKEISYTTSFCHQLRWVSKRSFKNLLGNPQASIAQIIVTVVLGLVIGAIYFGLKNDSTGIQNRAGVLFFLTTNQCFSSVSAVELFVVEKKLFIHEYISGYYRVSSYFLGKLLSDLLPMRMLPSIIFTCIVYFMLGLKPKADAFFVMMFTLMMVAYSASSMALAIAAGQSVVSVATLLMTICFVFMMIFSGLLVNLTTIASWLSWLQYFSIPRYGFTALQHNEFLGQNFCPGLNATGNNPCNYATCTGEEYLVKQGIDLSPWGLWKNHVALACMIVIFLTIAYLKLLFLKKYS
Description: as §1, §2
A similar analysis can be performed for rosuvastatin by substituting ERRos for ERDig and ERRos+T for ERDig+T in Eqn 6.

[1] = in the presence of 500 μM TCMCB07, increased by
[2] = transfected cells, 500 μM TCMCB07

IC50 (OATP1B1): 6.8 ± 1 µM
Slope factor (OATP1B1; slope factor n of Eqn 1, OATP1B1, substrate E17βG): 1.0 ± 0.1
IC50 (OAT1): could not be determined
decrease of MDR1‐mediated permeability of digoxin, A to B direction (human P‐gp (ABCB1, MDR1); in the presence of 500 μM TCMCB07, decreased by): 27%
increase of MDR1‐mediated permeability of digoxin, B to A direction (human P‐gp (ABCB1, MDR1); [1]): 68%
effect on P‐gp (MDR1)‐mediated permeability of prototypical substrate (human P‐gp (ABCB1, MDR1); [2]): did not affect
% Change ER of rosuvastatin, 100·(1−ERRos+T/ERRos) (BCRP (ABCG2); MDCKII/BCRP, 500 μM TCMCB07, negative = efflux ratio increased): −32%
increase of BCRP‐mediated permeability of rosuvastatin, A to B direction (BCRP (ABCG2); [1]): 5%
increase of BCRP‐mediated permeability of rosuvastatin, B to A direction (BCRP (ABCG2); [1]): 37%
effect on BCRP‐mediated permeability of prototypical substrate (BCRP (ABCG2); [2]): did not affect
Structure (SMILES): CCCC[C@H](NC(C)=O)C(=O)N[C@H]1CC(=O)NCCCC[C@@H](C(=O)N[C@@H](C(=O)N2CCC[C@@H]2C(N)=O)C(C)C)NC(=O)[C@H](Cc2c[nH]c3ccccc23)NC(=O)[C@H](CCCN=C(N)N)NC(=O)[C@@H](Cc2ccc3ccccc3c2)NC(=O)[C@@H]2CCCN2C1=O [TCMCB07, Ac‐Nle‐c[Asp‐Pro‐dNal2′‐Arg‐Trp‐Lys]‐dVal‐dPro‐NH2] (Ac-[Nle]DP[d2Nal]RWK[dV][dP]-NH2; lactam 2-7)
